Measurements published in ChEMBL document CHEMBL3045059, “Efficacy of ketoenols on insecticide resistant field populations of two-spotted spider mite Tetranychus urticae and sweet potato whitefly Bemisia tabaci from Greece” (2012).
Converted amounts (≈) assume the structure as drawn.

What was measured:
Format in all cases: functional
Tetranychus urticae [1] = assay: Resistance ratio, ratio of LC50 for adult Tetranychus urticae (two-spotted spider mite) field population TU2 to LC50 for adult Tetranychus urticae laboratory strain SAMB measured after 48 hr
Tetranychus urticae [2] = assay: Acaricidal activity against adult Tetranychus urticae (two-spotted spider mite) greenhouse population TU1 in bean leaves assessed as mortality applied at 1 bar pressure measured after 48 hr; conditions: TU1, 48 h
Tetranychus urticae [3] = assay: Resistance ratio, ratio of LC50 for adult Tetranychus urticae (two-spotted spider mite) field population TU4 to LC50 for adult Tetranychus urticae laboratory strain SAMB measured after 48 hr
Tetranychus urticae [4] = assay: Resistance ratio, ratio of LC50 for adult Tetranychus urticae (two-spotted spider mite) field population TU6 to LC50 for adult Tetranychus urticae laboratory strain SAMB measured after 48 hr
Tetranychus urticae [5] = assay: Acaricidal activity against adult Tetranychus urticae (two-spotted spider mite) field population TU4 in bean leaves assessed as mortality applied at 1 bar pressure measured after 48 hr; conditions: TU4, 48 h
Tetranychus urticae [6] = assay: Acaricidal activity against adult Tetranychus urticae (two-spotted spider mite) greenhouse population TU3 in bean leaves assessed as mortality applied at 1 bar pressure measured after 48 hr; conditions: TU3, 48 h
Tetranychus urticae [7] = assay: Resistance ratio, ratio of LC50 for adult Tetranychus urticae (two-spotted spider mite) greenhouse population TU9 to LC50 for adult Tetranychus urticae laboratory strain SAMB measured after 48 hr
Tetranychus urticae [8] = assay: Resistance ratio, ratio of LC50 for adult Tetranychus urticae (two-spotted spider mite) field population TU12 to LC50 for adult Tetranychus urticae laboratory strain SAMB measured after 48 hr
Tetranychus urticae [9] = assay: Acaricidal activity against adult Tetranychus urticae (two-spotted spider mite) field population TU6 in bean leaves assessed as mortality applied at 1 bar pressure measured after 48 hr; conditions: TU6, 48 h
Tetranychus urticae [10] = assay: Resistance ratio, ratio of LC50 for adult Tetranychus urticae (two-spotted spider mite) greenhouse population TU5 to LC50 for adult Tetranychus urticae laboratory strain SAMB measured after 48 hr
Tetranychus urticae [11] = assay: Acaricidal activity against adult Tetranychus urticae (two-spotted spider mite) greenhouse population TU7 in bean leaves assessed as mortality applied at 1 bar pressure measured after 48 hr; conditions: TU7, 48 h
Tetranychus urticae [12] = assay: Resistance ratio, ratio of LC50 for adult Tetranychus urticae (two-spotted spider mite) laboratory strain GSS to LC50 for adult Tetranychus urticae laboratory strain SAMB measured after 48 hr
Tetranychus urticae [13] = assay: Acaricidal activity against adult Tetranychus urticae (two-spotted spider mite) greenhouse population TU11 in bean leaves assessed as mortality applied at 1 bar pressure measured after 48 hr; conditions: TU11, 48 h
Tetranychus urticae [14] = assay: Resistance ratio, ratio of LC50 for adult Tetranychus urticae (two-spotted spider mite) greenhouse population TU7 to LC50 for adult Tetranychus urticae laboratory strain SAMB measured after 48 hr
Tetranychus urticae [15] = assay: Resistance ratio, ratio of LC50 for adult Tetranychus urticae (two-spotted spider mite) greenhouse population TU1 to LC50 for adult Tetranychus urticae laboratory strain SAMB measured after 48 hr
Tetranychus urticae [16] = assay: Acaricidal activity against adult Tetranychus urticae (two-spotted spider mite) laboratory strain GSS in bean leaves assessed as mortality applied at 1 bar pressure measured after 48 hr
Tetranychus urticae [17] = assay: Acaricidal activity against adult Tetranychus urticae (two-spotted spider mite) field population TU12 in bean leaves assessed as mortality applied at 1 bar pressure measured after 48 hr; conditions: TU12, 48 h
Tetranychus urticae [18] = assay: Acaricidal activity against adult Tetranychus urticae (two-spotted spider mite) greenhouse population TU5 in bean leaves assessed as mortality applied at 1 bar pressure measured after 48 hr; conditions: TU5, 48 h
Tetranychus urticae [19] = assay: Acaricidal activity against adult Tetranychus urticae (two-spotted spider mite) laboratory strain SAMB in bean leaves assessed as mortality applied at 1 bar pressure measured after 48 hr
Tetranychus urticae [20] = assay: Acaricidal activity against adult Tetranychus urticae (two-spotted spider mite) greenhouse population TU9 in bean leaves assessed as mortality applied at 1 bar pressure measured after 48 hr; conditions: TU9, 48 h
Tetranychus urticae [21] = assay: Acaricidal activity against adult Tetranychus urticae (two-spotted spider mite) field population TU2 in bean leaves assessed as mortality applied at 1 bar pressure measured after 48 hr; conditions: TU2, 48 h
Tetranychus urticae [22] = assay: Resistance ratio, ratio of LC50 for adult Tetranychus urticae (two-spotted spider mite) greenhouse population TU3 to LC50 for adult Tetranychus urticae laboratory strain SAMB measured after 48 hr
Tetranychus urticae [23] = assay: Resistance ratio, ratio of LC50 for adult Tetranychus urticae (two-spotted spider mite) greenhouse population TU11 to LC50 for adult Tetranychus urticae laboratory strain SAMB measured after 48 hr
Tetranychus urticae [24] = assay: Acaricidal activity against adult Tetranychus urticae (two-spotted spider mite) greenhouse population TU5 in bean leaves assessed as mortality applied at 1 bar pressure measured after 24 hr; conditions: TU5, 24 h
Tetranychus urticae [25] = assay: Acaricidal activity against adult Tetranychus urticae (two-spotted spider mite) greenhouse population TU9 in bean leaves assessed as mortality applied at 1 bar pressure measured after 24 hr; conditions: TU9, 24 h
Tetranychus urticae [26] = assay: Acaricidal activity against adult Tetranychus urticae (two-spotted spider mite) laboratory strain SAMB in bean leaves assessed as mortality applied at 1 bar pressure measured after 24 hr
Tetranychus urticae [27] = assay: Resistance ratio, ratio of LC50 for adult Tetranychus urticae (two-spotted spider mite) field population TU2 to LC50 for adult Tetranychus urticae laboratory strain SAMB measured after 24 hr
Tetranychus urticae [28] = assay: Resistance ratio, ratio of LC50 for adult Tetranychus urticae (two-spotted spider mite) greenhouse population TU7 to LC50 for adult Tetranychus urticae laboratory strain SAMB measured after 24 hr
Tetranychus urticae [29] = assay: Resistance ratio, ratio of LC50 for adult Tetranychus urticae (two-spotted spider mite) field population TU6 to LC50 for adult Tetranychus urticae laboratory strain SAMB measured after 24 hr
Tetranychus urticae [30] = assay: Acaricidal activity against adult Tetranychus urticae (two-spotted spider mite) greenhouse population TU3 in bean leaves assessed as mortality applied at 1 bar pressure measured after 24 hr; conditions: TU3, 24 h
Tetranychus urticae [31] = assay: Resistance ratio, ratio of LC50 for adult Tetranychus urticae (two-spotted spider mite) greenhouse population TU3 to LC50 for adult Tetranychus urticae laboratory strain SAMB measured after 24 hr
Tetranychus urticae [32] = assay: Resistance ratio, ratio of LC50 for adult Tetranychus urticae (two-spotted spider mite) field population TU12 to LC50 for adult Tetranychus urticae laboratory strain SAMB measured after 24 hr
Tetranychus urticae [33] = assay: Resistance ratio, ratio of LC50 for adult Tetranychus urticae (two-spotted spider mite) greenhouse population TU5 to LC50 for adult Tetranychus urticae laboratory strain SAMB measured after 24 hr
Tetranychus urticae [34] = assay: Acaricidal activity against adult Tetranychus urticae (two-spotted spider mite) greenhouse population TU7 in bean leaves assessed as mortality applied at 1 bar pressure measured after 24 hr; conditions: TU7, 24 h
Tetranychus urticae [35] = assay: Acaricidal activity against adult Tetranychus urticae (two-spotted spider mite) laboratory strain GSS in bean leaves assessed as mortality applied at 1 bar pressure measured after 24 hr
Tetranychus urticae [36] = assay: Acaricidal activity against adult Tetranychus urticae (two-spotted spider mite) field population TU12 in bean leaves assessed as mortality applied at 1 bar pressure measured after 24 hr; conditions: TU12, 24 h
Tetranychus urticae [37] = assay: Acaricidal activity against adult Tetranychus urticae (two-spotted spider mite) field population TU4 in bean leaves assessed as mortality applied at 1 bar pressure measured after 24 hr; conditions: TU4, 24 h
Tetranychus urticae [38] = assay: Resistance ratio, ratio of LC50 for adult Tetranychus urticae (two-spotted spider mite) greenhouse population TU11 to LC50 for adult Tetranychus urticae laboratory strain SAMB measured after 24 hr
Tetranychus urticae [39] = assay: Resistance ratio, ratio of LC50 for adult Tetranychus urticae (two-spotted spider mite) greenhouse population TU1 to LC50 for adult Tetranychus urticae laboratory strain SAMB measured after 24 hr
Tetranychus urticae [40] = assay: Resistance ratio, ratio of LC50 for adult Tetranychus urticae (two-spotted spider mite) laboratory strain GSS to LC50 for adult Tetranychus urticae laboratory strain SAMB measured after 24 hr
Tetranychus urticae [41] = assay: Acaricidal activity against adult Tetranychus urticae (two-spotted spider mite) greenhouse population TU1 in bean leaves assessed as mortality applied at 1 bar pressure measured after 24 hr; conditions: TU1, 24 h
Tetranychus urticae [42] = assay: Acaricidal activity against adult Tetranychus urticae (two-spotted spider mite) field population TU2 in bean leaves assessed as mortality applied at 1 bar pressure measured after 24 hr; conditions: TU2, 24 h
Tetranychus urticae [43] = assay: Resistance ratio, ratio of LC50 for adult Tetranychus urticae (two-spotted spider mite) field population TU4 to LC50 for adult Tetranychus urticae laboratory strain SAMB measured after 24 hr
Tetranychus urticae [44] = assay: Acaricidal activity against adult Tetranychus urticae (two-spotted spider mite) field population TU6 in bean leaves assessed as mortality applied at 1 bar pressure measured after 24 hr; conditions: TU6, 24 h
Tetranychus urticae [45] = assay: Resistance ratio, ratio of LC50 for adult Tetranychus urticae (two-spotted spider mite) greenhouse population TU9 to LC50 for adult Tetranychus urticae laboratory strain SAMB measured after 24 hr
Tetranychus urticae [46] = assay: Acaricidal activity against adult Tetranychus urticae (two-spotted spider mite) greenhouse population TU11 in bean leaves assessed as mortality applied at 1 bar pressure measured after 24 hr; conditions: TU11, 24 h

## Cc1c(COC(=O)[C@@H]2[C@H](/C=C(\Cl)C(F)(F)F)C2(C)C)cccc1-c1ccccc1 (relative stereo) [BIFENTHRIN]
Tetranychus urticae [1]
  RatioLC50: 4.7
Tetranychus urticae [2]
  LC50: 115 µg/mL (≈ 272 µM)
Tetranychus urticae [3]
  RatioLC50: 351
Tetranychus urticae [4]
  RatioLC50: 0.9
Tetranychus urticae [5]
  LC50: 3140 µg/mL (≈ 7420 µM)
Tetranychus urticae [6]
  LC50: 741 µg/mL (≈ 1750 µM)
Tetranychus urticae [7]
  RatioLC50: 12
Tetranychus urticae [8]
  RatioLC50: 9.5
Tetranychus urticae [9]
  LC50: 8.5 µg/mL (≈ 20.1 µM)
Tetranychus urticae [10]
  RatioLC50: 5
Tetranychus urticae [11]
  LC50: 75100 µg/mL (≈ 178000 µM)
Tetranychus urticae [12]
  RatioLC50: 1.5
Tetranychus urticae [13]
  LC50: 168 µg/mL (≈ 397 µM)
Tetranychus urticae [14]
  RatioLC50: 8413
Tetranychus urticae [15]
  RatioLC50: 13
Tetranychus urticae [16]
  LC50: 13 µg/mL (≈ 30.7 µM)
Tetranychus urticae [17]
  LC50: 85 µg/mL (≈ 201 µM)
Tetranychus urticae [18]
  LC50: 45 µg/mL (≈ 106 µM)
Tetranychus urticae [19]
  LC50: 8.9 µg/mL (≈ 21 µM)
Tetranychus urticae [20]
  LC50: 112 µg/mL (≈ 265 µM)
Tetranychus urticae [21]
  LC50: 42 µg/mL (≈ 99.3 µM)
Tetranychus urticae [22]
  RatioLC50: 83
Tetranychus urticae [23]
  RatioLC50: 19

## CC(C)(C)c1ccc(CCOc2ncnc3ccccc23)cc1 [FENAZAQUIN]
Tetranychus urticae [24]
  LC50: 49 µg/mL (≈ 160 µM)
Tetranychus urticae [25]
  LC50: 316 µg/mL (≈ 1030 µM)
Tetranychus urticae [26]
  LC50: 13 µg/mL (≈ 42.4 µM)
Tetranychus urticae [27]
  RatioLC50: 7.3
Tetranychus urticae [28]
  RatioLC50: 33
Tetranychus urticae [29]
  RatioLC50: 2.2
Tetranychus urticae [30]
  LC50: 77 µg/mL (≈ 251 µM)
Tetranychus urticae [31]
  RatioLC50: 5.7
Tetranychus urticae [32]
  RatioLC50: 15
Tetranychus urticae [33]
  RatioLC50: 3.7
Tetranychus urticae [34]
  LC50: 447 µg/mL (≈ 1460 µM)
Tetranychus urticae [35]
  LC50: 17 µg/mL (≈ 55.5 µM)
Tetranychus urticae [36]
  LC50: 215 µg/mL (≈ 702 µM)
Tetranychus urticae [37]
  LC50: 55 µg/mL (≈ 179 µM)
Tetranychus urticae [38]
  RatioLC50: 42
Tetranychus urticae [39]
  RatioLC50: 13
Tetranychus urticae [40]
  RatioLC50: 1.3
Tetranychus urticae [41]
  LC50: 179 µg/mL (≈ 584 µM)
Tetranychus urticae [42]
  LC50: 97 µg/mL (≈ 317 µM)
Tetranychus urticae [43]
  RatioLC50: 4.1
Tetranychus urticae [44]
  LC50: 29 µg/mL (≈ 94.6 µM)
Tetranychus urticae [45]
  RatioLC50: 23
Tetranychus urticae [46]
  LC50: 562 µg/mL (≈ 1830 µM)
